Results reported in US8680133B2, “Alkyl indole-3-carbinol-derived antitumor agents” (The Ohio State University Research Foundation, priority 2009, dated 2014).

Experiments:
Format in all cases: cell-based, human
MOLT-4 = experiment: NCI60 screening, Leukemia, MOLT-4
SR = experiment: NCI60 screening, Leukemia, SR
A549/ATCC = experiment: NCI60 screening, Non-Small Cell Lung Cancer, A549/ATCC
NCI-H460 = experiment: NCI60 screening, Non-Small Cell Lung Cancer, NCI-H460
HCC-2998 = experiment: NCI60 screening, Colon Cancer, HCC-2998
LOX IMVI = experiment: NCI60 screening, Melanoma, LOX IMVI
M14 = experiment: NCI60 screening, Melanoma, M14
MDA-MB-435 = experiment: NCI60 screening, Melanoma, MDA-MB-435
UACC-62 = experiment: NCI60 screening, Melanoma, UACC-62
IGROV1 = experiment: NCI60 screening, Ovarian Cancer, IGROV1
OVCAR-3 = experiment: NCI60 screening, Ovarian Cancer, OVCAR-3
SK-OV-3 = experiment: NCI60 screening, Ovarian Cancer, SK-OV-3
ACHN = experiment: NCI60 screening, Renal Cancer, ACHN
TK-10 = experiment: NCI60 screening, Renal Cancer, TK-10
U0-31 = experiment: NCI60 screening, Renal Cancer, U0-31
PC-3 = experiment: NCI60 screening, Prostate Cancer, PC-3
T-47D = experiment: NCI60 screening, Breast Cancer, T-47D
MDA-MB-468 = experiment: NCI60 screening, Breast Cancer, MDA-MB-468
[1] = Homo sapiens, read-out: LC50 (the source's name)

Cc1ccc2c(c1)c(CO)cn2S(=O)(=O)c1ccc(Cl)c([N+](=O)[O-])c1 [OSU-A9M, [1-(4-chloro-3-nitro-benzenesulfonyl)-5-methyl-1H-indol-3-yl]-methanol]
TGI (MOLT-4): 1.96E−6
GI50 (MOLT-4; Homo sapiens): 334 nM
LC50 (MOLT-4; Homo sapiens): 18.3 µM
Percent Growth (MOLT-4; Log10 Concentration −4.0): −64%
Percent Growth (MOLT-4; Log10 Concentration −5.0): −45%
Percent Growth (MOLT-4; Log10 Concentration −6.0): 19%
Percent Growth (MOLT-4; Log10 Concentration −7.0): 85%
Percent Growth (MOLT-4; Log10 Concentration −8.0): 92%
TGI (SR): 2.47E−6
GI50 (SR; Homo sapiens): 371 nM
CC50 (SR; [1]): > 100 µM
Percent Growth (SR; Log10 Concentration −4.0): −46%
Percent Growth (SR; Log10 Concentration −5.0): −25%
Percent Growth (SR; Log10 Concentration −6.0): 16%
Percent Growth (SR; Log10 Concentration −7.0): 94%
Percent Growth (SR; Log10 Concentration −8.0): 85%
TGI (A549/ATCC): 4.89E−6
GI50 (A549/ATCC; Homo sapiens): 2050 nM
CC50 (A549/ATCC; [1]): > 100 µM
Percent Growth (A549/ATCC; Log10 Concentration −4.0): −47%
Percent Growth (A549/ATCC; Log10 Concentration −5.0): −41%
Percent Growth (A549/ATCC; Log10 Concentration −6.0): 91%
Percent Growth (A549/ATCC; Log10 Concentration −7.0): 94%
Percent Growth (A549/ATCC; Log10 Concentration −8.0): 95%
TGI (NCI-H460): 3.36E−6
GI50 (NCI-H460; Homo sapiens): 1830 nM
LC50 (concentration killing 50% of cells) (NCI-H460; Homo sapiens): 6.18 µM
Percent Growth (NCI-H460; Log10 Concentration −4.0): −89%
Percent Growth (NCI-H460; Log10 Concentration −5.0): −89%
Percent Growth (NCI-H460; Log10 Concentration −6.0): 100%
Percent Growth (NCI-H460; Log10 Concentration −7.0): 99%
Percent Growth (NCI-H460; Log10 Concentration −8.0): 96%
TGI (HCC-2998): 2.73E−6
GI50 (HCC-2998; Homo sapiens): 1420 nM
CC50 (HCC-2998; [1]): 5.23 µM
Percent Growth (HCC-2998; Log10 Concentration −4.0): −99%
Percent Growth (HCC-2998; Log10 Concentration −5.0): −100%
Percent Growth (HCC-2998; Log10 Concentration −6.0): 77%
Percent Growth (HCC-2998; Log10 Concentration −7.0): 91%
Percent Growth (HCC-2998; Log10 Concentration −8.0): 96%
TGI (LOX IMVI): 2.86E−7
GI50 (LOX IMVI; Homo sapiens): 138 nM
CC50 (LOX IMVI; [1]): 594 nM
Percent Growth (LOX IMVI; Log10 Concentration −4.0): −100%
Percent Growth (LOX IMVI; Log10 Concentration −5.0): −100%
Percent Growth (LOX IMVI; Log10 Concentration −6.0): −86%
Percent Growth (LOX IMVI; Log10 Concentration −7.0): 72%
Percent Growth (LOX IMVI; Log10 Concentration −8.0): 84%
TGI (M14): 2.88E−6
GI50 (M14; Homo sapiens): 1520 nM
CC50 (M14; [1]): 5.43 µM
Percent Growth (M14; Log10 Concentration −4.0): −100%
Percent Growth (M14; Log10 Concentration −5.0): −98%
Percent Growth (M14; Log10 Concentration −6.0): 83%
Percent Growth (M14; Log10 Concentration −7.0): 97%
Percent Growth (M14; Log10 Concentration −8.0): 95%
TGI (MDA-MB-435): 2.93E−6
GI50 (MDA-MB-435; Homo sapiens): 1520 nM
LC50 (50% lethal concentration) (MDA-MB-435; Homo sapiens): 5.64 µM
Percent Growth (MDA-MB-435; Log10 Concentration −4.0): −92%
Percent Growth (MDA-MB-435; Log10 Concentration −5.0): −94%
Percent Growth (MDA-MB-435; Log10 Concentration −6.0): 82%
Percent Growth (MDA-MB-435; Log10 Concentration −7.0): 87%
Percent Growth (MDA-MB-435; Log10 Concentration −8.0): 95%
TGI (UACC-62): 3.19E−6
GI50 (UACC-62; Homo sapiens): 1670 nM
CC50 (UACC-62; [1]): 6.07 µM
Percent Growth (UACC-62; Log10 Concentration −4.0): −93%
Percent Growth (UACC-62; Log10 Concentration −5.0): −89%
Percent Growth (UACC-62; Log10 Concentration −6.0): 90%
Percent Growth (UACC-62; Log10 Concentration −7.0): 91%
Percent Growth (UACC-62; Log10 Concentration −8.0): 93%
TGI (IGROV1): 1.23E−6
GI50 (IGROV1; Homo sapiens, IGROV-1): 349 nM
CC50 (IGROV1; Homo sapiens, IGROV-1, read-out: LC50 (the source's name)): 3.5 µM
Percent Growth (IGROV1; Log10 Concentration −4.0): −100%
Percent Growth (IGROV1; Log10 Concentration −5.0): −100%
Percent Growth (IGROV1; Log10 Concentration −6.0): 10%
Percent Growth (IGROV1; Log10 Concentration −7.0): 98%
Percent Growth (IGROV1; Log10 Concentration −8.0): 86%
TGI (OVCAR-3): 4.90E−7
GI50 (OVCAR-3; Homo sapiens): 225 nM
CC50 (OVCAR-3; [1]): 1190 nM
Percent Growth (OVCAR-3; Log10 Concentration −4.0): −100%
Percent Growth (OVCAR-3; Log10 Concentration −5.0): −100%
Percent Growth (OVCAR-3; Log10 Concentration −6.0): −46%
Percent Growth (OVCAR-3; Log10 Concentration −7.0): 102%
Percent Growth (OVCAR-3; Log10 Concentration −8.0): 100%
TGI (SK-OV-3): 3.06E−6
GI50 (SK-OV-3; Homo sapiens): 1670 nM
CC50 (SK-OV-3; [1]): 5.62 µM
Percent Growth (SK-OV-3; Log10 Concentration −4.0): −100%
Percent Growth (SK-OV-3; Log10 Concentration −5.0): −97%
Percent Growth (SK-OV-3; Log10 Concentration −6.0): 92%
Percent Growth (SK-OV-3; Log10 Concentration −7.0): 97%
Percent Growth (SK-OV-3; Log10 Concentration −8.0): 95%
TGI (ACHN): 3.14E−6
GI50 (ACHN; Homo sapiens): 1760 nM
CC50 (ACHN; [1]): 5.6 µM
Percent Growth (ACHN; Log10 Concentration −4.0): −100%
Percent Growth (ACHN; Log10 Concentration −5.0): −100%
Percent Growth (ACHN; Log10 Concentration −6.0): 99%
Percent Growth (ACHN; Log10 Concentration −7.0): 93%
Percent Growth (ACHN; Log10 Concentration −8.0): 98%
TGI (TK-10): 2.98E−6
GI50 (TK-10; Homo sapiens): 1560 nM
CC50 (TK-10; [1]): 5.71 µM
Percent Growth (TK-10; Log10 Concentration −4.0): −89%
Percent Growth (TK-10; Log10 Concentration −5.0): −93%
Percent Growth (TK-10; Log10 Concentration −6.0): 84%
Percent Growth (TK-10; Log10 Concentration −7.0): 83%
Percent Growth (TK-10; Log10 Concentration −8.0): 90%
TGI (U0-31): 3.46E−6
GI50 (U0-31; Homo sapiens): 1830 nM
CC50 (U0-31; [1]): 6.54 µM
Percent Growth (U0-31; Log10 Concentration −4.0): −100%
Percent Growth (U0-31; Log10 Concentration −5.0): −83%
Percent Growth (U0-31; Log10 Concentration −6.0): 97%
Percent Growth (U0-31; Log10 Concentration −7.0): 98%
Percent Growth (U0-31; Log10 Concentration −8.0): 87%
TGI (PC-3): 4.32E−6
GI50 (PC-3; Homo sapiens): 1620 nM
CC50 (PC-3; [1]): 13.9 µM
Percent Growth (PC-3; Log10 Concentration −4.0): −93%
Percent Growth (PC-3; Log10 Concentration −5.0): −43%
Percent Growth (PC-3; Log10 Concentration −6.0): 75%
Percent Growth (PC-3; Log10 Concentration −7.0): 74%
Percent Growth (PC-3; Log10 Concentration −8.0): 80%
TGI (T-47D): 2.91E−6
GI50 (T-47D; Homo sapiens, T47D): 1120 nM
CC50 (T-47D; Homo sapiens, T47D, read-out: LC50 (the source's name)): 7.54 µM
Percent Growth (T-47D; Log10 Concentration −4.0): −61%
Percent Growth (T-47D; Log10 Concentration −5.0): −65%
Percent Growth (T-47D; Log10 Concentration −6.0): 56%
Percent Growth (T-47D; Log10 Concentration −7.0): 93%
Percent Growth (T-47D; Log10 Concentration −8.0): 95%
TGI (MDA-MB-468): 2.18E−6
GI50 (MDA-MB-468; Homo sapiens): 979 nM
CC50 (MDA-MB-468; [1]): 4.78 µM
Percent Growth (MDA-MB-468; Log10 Concentration −4.0): −95%
Percent Growth (MDA-MB-468; Log10 Concentration −5.0): −97%
Percent Growth (MDA-MB-468; Log10 Concentration −6.0): 50%
Percent Growth (MDA-MB-468; Log10 Concentration −7.0): 86%
Percent Growth (MDA-MB-468; Log10 Concentration −8.0): 90%
